Data as given in US10004711B2, “Methods and compositions comprising 10-hydroxy-2-decenoic acid” (DSM IP ASSETS B.V., priority 2014, dated 2018).

Experiments:
[1] = Weight management in mice, colitis-related disease state (cell transfer insult); type: in vivo, mouse; conditions: for % Original Wt: Diseased + QBA 60 mg/kg body weight/day
Method: Mice (45 days of age) were fed 60 mg/kg body weight/day QBA (equivalent to 24 mg/kg/d in rats; HED of ˜240 mg/day, N=10) or a control diet (N=15) for 28 days. […] After 28 days, all 10 of the mice fed QBA and 10 of the 15 control mice were subjected to a cell transfer insult wherein the mice were considered to be in a colitis-related disease state. The undiseased controls (N=5) and the diseased controls (N=10) continued on their control diets, and the diseased QBA-fed animals continued on their QBA diets (60 mg/kg body weight/day QBA), for an additional 49 days.

[2] = tested on: RAW264.7 mouse macrophage cell line; test: TNFα levels after LPS stimulation; type: cell-based; conditions: for TNFα (pg/mL)/Cell Numbers: 24 h
Method: Cultures of the RAW264.7 mouse macrophage cell line were pre-treated with 10-Hydroxy-2-decenoic acid (QBA) for 1 hour prior to stimulation with lipopolysaccharide (LPS, 100 ng/mL). After 24 hours of incubation, interleukin […] (IL-1β) and tumor necrosis factor-α (TNFα) levels were determined by Luminex technology and cell numbers were measured using Alamar Blue. Results are given as a ratio of cytokine concentration/cell number.

[3] = Body weight of aged male rats fed QBA (Example 7); type: in vivo, rat
Method: Aged male rats were fed 10-Hydroxy-2-decenoic acid (QBA) for approximately 7 months from 11-months to 18-months of age and the weight of rats was recorded.

## O=C(O)C=CCCCCCCCO [QBA, 10-Hydroxy-2-decenoic acid]
[1]; day 0
  % Original Wt: 0.00%
[1]; day 3
  % Original Wt: 1.93%
[1]; day 7
  % Original Wt: 5.33%
[1]; day 10
  % Original Wt: 9.91%
[1]; day 14
  % Original Wt: 9.09%
[1]; day 17
  % Original Wt: 9.10%
[1]; day 21
  % Original Wt: 12.60%
[1]; day 24
  % Original Wt: 15.47%
[1]; day 28* (cell transfer insult after 28 days)
  % Original Wt: 16.19%
[1]; day 31
  % Original Wt: 18.82%
[1]; day 35
  % Original Wt: 20.65%
[1]; day 38
  % Original Wt: 19.66%
[1]; day 42
  % Original Wt: 21.27%
[1]; day 45
  % Original Wt: 22.86%
[1]; day 49
  % Original Wt: 24.04%
[1]; day 52
  % Original Wt: 24.05%
[1]; day 56
  % Original Wt: 22.29%
[1]; day 59
  % Original Wt: 21.83%
[1]; day 63
  % Original Wt: 23.89%
[1]; day 66
  % Original Wt: 22.42%
[1]; day 70
  % Original Wt: 22.95%
[1]; day 73
  % Original Wt: 21.96%
[1]; day 77
  % Original Wt: 20.56%
[1]; QBA 60 mg/kg body weight/day, colitis-related disease state
  weight of mice in a diseased state versus undiseased controls: maintained their weight similar to the undiseased control mice
[1]; QBA 60 mg/kg body weight/day, first 28 days, before insult
  percentage increase in body weight versus control diet: greater percentage increase in body weight
[2]; QBA 50 μM 1 h before LPS 100 ng/mL
  TNFα (pg/mL)/Cell Numbers: 0.409 (pg/mL)/Cell Numbers
[2]; QBA 100 μM 1 h before LPS 100 ng/mL
  TNFα (pg/mL)/Cell Numbers: 0.456 (pg/mL)/Cell Numbers
[2]; QBA 500 μM 1 h before LPS 100 ng/mL
  TNFα (pg/mL)/Cell Numbers: 0.427 (pg/mL)/Cell Numbers
[2]; QBA 1000 μM 1 h before LPS 100 ng/mL
  TNFα (pg/mL)/Cell Numbers: 0.261 (pg/mL)/Cell Numbers
[2]; QBA 2500 μM 1 h before LPS 100 ng/mL
  TNFα (pg/mL)/Cell Numbers: 0.252 (pg/mL)/Cell Numbers
[2]; QBA 5000 μM 1 h before LPS 100 ng/mL
  TNFα (pg/mL)/Cell Numbers: 0.150 (pg/mL)/Cell Numbers
[2]; summary of Table 10
  production of TNFα in immune cells: reduced the production
[3]; QBA 0.4 mg/kg/day, study day 0
  Avg Wt: 509.6 g
[3]; QBA 0.4 mg/kg/day, study day 7
  Avg Wt: 516.1 g
[3]; QBA 0.4 mg/kg/day, study day 21
  Avg Wt: 524.4 g
[3]; QBA 0.4 mg/kg/day, study day 29
  Avg Wt: 508.6 g
[3]; QBA 0.4 mg/kg/day, study day 36
  Avg Wt: 523.1 g
[3]; QBA 0.4 mg/kg/day, study day 50
  Avg Wt: 554.6 g
[3]; QBA 0.4 mg/kg/day, study day 57
  Avg Wt: 559.5 g
[3]; QBA 0.4 mg/kg/day, study day 64
  Avg Wt: 566.7 g
[3]; QBA 0.4 mg/kg/day, study day 71
  Avg Wt: 568.6 g
[3]; QBA 0.4 mg/kg/day, study day 78
  Avg Wt: 570.3 g
[3]; QBA 0.4 mg/kg/day, study day 85
  Avg Wt: 577.3 g
[3]; QBA 0.4 mg/kg/day, study day 92
  Avg Wt: 581.3 g
[3]; QBA 0.4 mg/kg/day, study day 99
  Avg Wt: 583.8 g
[3]; QBA 0.4 mg/kg/day, study day 106
  Avg Wt: 592.7 g
[3]; QBA 0.4 mg/kg/day, study day 113
  Avg Wt: 593.2 g
[3]; QBA 0.4 mg/kg/day, study day 120
  Avg Wt: 596.8 g
[3]; QBA 0.4 mg/kg/day, study day 127
  Avg Wt: 590.7 g
[3]; QBA 0.4 mg/kg/day, study day 141
  Avg Wt: 589.8 g
[3]; QBA 0.4 mg/kg/day, study day 148
  Avg Wt: 578.0 g
[3]; QBA 0.4 mg/kg/day, study day 155
  Avg Wt: 585.4 g
[3]; QBA 0.4 mg/kg/day, study day 162
  Avg Wt: 593.6 g
[3]; QBA 0.4 mg/kg/day, study day 169
  Avg Wt: 601.7 g
[3]; QBA 0.4 mg/kg/day, study day 176
  Avg Wt: 573.6 g
[3]; QBA 0.4 mg/kg/day, study day 182
  Avg Wt: 588.7 g
[3]; QBA 0.4 mg/kg/day, study day 190
  Avg Wt: 584.1 g
[3]; QBA 0.4 mg/kg/day, study day 197
  Avg Wt: 582.6 g
[3]; QBA 0.4 mg/kg/day, study day 204
  Avg Wt: 580.1 g
[3]; QBA 0.4 mg/kg/day, study day 211
  Avg Wt: 575.8 g
[3]; QBA 0.4 mg/kg/day, study day 217
  Avg Wt: 582.6 g
[3]; QBA 4 mg/kg/day, study day 0
  Avg Wt: 509.8 g
[3]; QBA 4 mg/kg/day, study day 7
  Avg Wt: 518.9 g
[3]; QBA 4 mg/kg/day, study day 21
  Avg Wt: 527.4 g
[3]; QBA 4 mg/kg/day, study day 29
  Avg Wt: 511.6 g
[3]; QBA 4 mg/kg/day, study day 36
  Avg Wt: 526.8 g
[3]; QBA 4 mg/kg/day, study day 50
  Avg Wt: 567.3 g
[3]; QBA 4 mg/kg/day, study day 57
  Avg Wt: 571.0 g
[3]; QBA 4 mg/kg/day, study day 64
  Avg Wt: 576.4 g
[3]; QBA 4 mg/kg/day, study day 71
  Avg Wt: 576.2 g
[3]; QBA 4 mg/kg/day, study day 78
  Avg Wt: 584.8 g
[3]; QBA 4 mg/kg/day, study day 85
  Avg Wt: 587.5 g
[3]; QBA 4 mg/kg/day, study day 92
  Avg Wt: 584.3 g
[3]; QBA 4 mg/kg/day, study day 99
  Avg Wt: 595.4 g
[3]; QBA 4 mg/kg/day, study day 106
  Avg Wt: 592.5 g
